Converted amounts (≈) assume the structure as drawn. Where two headings read alike, the source gives them in different places.
Legend:
[1] = molecular target: T1, CD4 (Homo sapiens, UniProt P01730); test: CD4 down-modulation, flow cytometry with FITC-conjugated anti-CD4 (SK3) mAb, MT-4 cells; assay type: cell-based; design: To study the effect of the CADA derivatives on surface CD4 antigen expression, MT-4 and SupT1 cells were incubated; endogenous in cells; host or cells: MT-4, SupT1, PBMC; conditions: for IC50: MT-4 cells, day 3, read-out: IC50 CD4 (50% inhibition of extracellular CD4 expression) (converted); for CD4 down-modulating activity compared with CADA or parent analog (in words): structure-activity discussion of Table 5 (MT-4 and SupT1 cells); for CD4 down-modulating activity, fold less active than CADA: compared to CADA, MT-4 cells (stated for some compounds)
Description: Flow Cytometric Analyses. To study the effect of the CADA derivatives on surface CD4 antigen expression, MT-4 and SupT1 cells were incubated with a serial 5-fold dilution of the compounds (50, 10, 2, 0.4 and 0.08 μg/ml) or medium at 37° C. […] Briefly, after washing with phosphate-buffered saline (PBS) containing 2% fetal calf serum (FCS), cells were incubated with FITC-conjugated anti-CD4 (SK3) mAb for 30 min at 4° C. As a negative control for a specific background staining, cells were stained in parallel with Simultest Control γ1/γ^2a (Becton Dickinson). Then the cells were washed, fixed with 1% formaldehyde and analyzed by flow cytometry in a FACScalibur (Becton Dickinson, San Jose, Calif., USA). Data were acquired and analyzed with CellQuest software (Becton Dickinson). For the calculation of the CD4 receptor expression, the mean fluorescence intensity (MFI) of each sample was expressed as percentage of the MFI of control cells (after subtracting the MFI of the isotype control). Finally, the IC50 value of the compounds (i.e., the concentration of the compound required for 50% inhibition of extracellular CD4 expression) was calculated.

[2] = molecular target: T1, CD4; test: CD4 down-modulation, flow cytometry with FITC-conjugated anti-CD4 (SK3) mAb, SupT1 cells; assay type: cell-based; design: To study the effect of the CADA derivatives on surface CD4 antigen expression, MT-4 and SupT1 cells were incubated; endogenous in cells; host or cells: MT-4, SupT1, PBMC; conditions: for IC50: day 4, read-out: IC50 CD4 (50% inhibition of extracellular CD4 expression) (converted)
Description: Flow Cytometric Analyses. To study the effect of the CADA derivatives on surface CD4 antigen expression, MT-4 and SupT1 cells were incubated with a serial 5-fold dilution of the compounds (50, 10, 2, 0.4 and 0.08 μg/ml) or medium at 37° C. Cell surface CD4 antigen expression was analyzed at day 3 (MT-4) or day 4 (SupT1). Briefly, after washing with phosphate-buffered saline (PBS) containing 2% fetal calf serum (FCS), cells were incubated with FITC-conjugated anti-CD4 (SK3) mAb for 30 min at 4° C. As a negative control for a specific background staining, cells were stained in parallel with Simultest Control γ1/γ^2a (Becton Dickinson). Then the cells were washed, fixed with 1% formaldehyde and analyzed by flow cytometry in a FACScalibur (Becton Dickinson, San Jose, Calif., USA). Data were acquired and analyzed with CellQuest software (Becton Dickinson). For the calculation of the CD4 receptor expression, the mean fluorescence intensity (MFI) of each sample was expressed as percentage of the MFI of control cells (after subtracting the MFI of the isotype control). Finally, the IC50 value of the compounds (i.e., the concentration of the compound required for 50% inhibition of extracellular CD4 expression) was calculated.

[3] = Cytotoxicity assay (trypan blue exclusion, propidium iodide); assay type: cell-based, human; conditions: human, read-out: CC50 (50% cytotoxic concentration)
Description: Cytotoxicity Assay. Cellular toxicity of the compounds was measured by trypan blue exclusion and also by Propidium Iodide by flow cytometry after 3 or 4 days of incubation, in parallel with the CD4 antigen expression. The CC50 value of each CADA analog is the concentration (in μg/ml) required to reduce the viability of the cells by 50%.

[4] = tested on: HHV-7 (KHR strain); test: Anti-HHV-7 assay in SupT1 cells (antigen expression, flow cytometry, Example 3); assay type: cell-based
Description: For HHV-7, five-fold dilutions of the compounds were added in 500 μl culture medium in 24-well flat bottom plates (Iwaki, Japan), whereupon 2×10^5 SupT1 cells were added in 400 μl culture medium. After 30 min incubation at room temperature, 100 μl of HHV-7 stock was added to each well. HHV-7-infected and mock-infected SupT1 cells were cultured in a final volume of 1 ml medium in the absence of the compounds. On day 4, half of the medium and the cells were replaced and fresh medium without new compound was added. This procedure was repeated every 2 or 3 days. The CPE was checked regularly microscopically. When CPE was observed, the HHV-7 antigen expression was monitored by flow cytometry, as described previously (Zhang, Y. et al. (1999) “Selective activity of various antiviral compounds against HHV-7 infection Antiviral Res. 43, 23-35.)

[5] = tested on: HIV-1 strain NL4.3; test: Anti-HIV-1 assay in MT-4 cells (p24 Ag ELISA, Example 3); assay type: cell-based
Description: Antiviral Assays. For HIV-1, MT-4 cells were infected with the HIV-1 strain NL4.3. Briefly, five-fold dilutions of the compounds (in 100 μl) were added to 96-well flat bottom plates (Iwaki, Japan). Then, to each well, 7.5×10^4 MT-4 cells were added in 50 μl medium, followed by 50 μl of diluted HIV-1 stock (strain NL4.3). Cytopathic effect (CPE) induced by the virus was checked regularly microscopically. When strong CPE was observed (after 3 to 5 days of incubation) in untreated HIV-1 infected cells, the supernatant was collected, stored at −20° C. and analyzed for HIV-1 core antigen by p24 Ag ELISA (NEN™, PerkinElmer Life Sciences, Boston, Mass.). Finally, the IC50 value of the compounds (i.e., the concentration of the compound required for 50% reduction of HIV infection as measured by viral p24 antigen level in the supernatant of infected MT-4 cells) was calculated.

[6] = molecular target: T1, CD4; test: Cell surface CD4 expression by flow cytometry (anti-CD4 mAb Leu3a-PE); assay type: cell-based; design: To study the effect of the CADA derivatives on surface CD4 antigen expression, MT-4 and SupT1 cells were incubated; endogenous in cells; host or cells: MT-4, SupT1, PBMC
Description: FIGS. 2A-2C. Surface CD4 expression in MT-4 cell line, SupT1 cell line and PBMCs after incubation with CADA hydrochloride (3.2 or 16 μM) for 1 and 4 days. (A) Cell surface CD4 expression of control MT-4 cells and MT-4 cells treated with CADA (3.2 μM) for 1 day or 4 days. (B) Cell surface CD4 expression of control SupT1 cells and SupT1 cells treated with CADA (3.2 μM) for 1 day or 4 days. (C) Cell surface CD4 expression of control PBMCs and PBMCs treated with CADA (16 μM) for 1 day or 4 days. The cells were stained with anti-CD4 mAb (Leu3a-PE). Percentages of fluorescent cells and MFI (mean fluorescence intensity) are indicated in each histogram.
FIG. 4. Comparison of the effects on CD4 modulation by ATA (24 μM), CADA hydrochloride (16 μM) and PMA (8 nM) in SupT1 cells after incubation with the compounds analyzed after 20 minutes, 4 hours, 1 day and 4 days.
Cells were incubated with CADA hydrochloride and the CD4 expression on the cell surface was analyzed. […] In peripheral blood mononuclear cells (PBMCs), the percentage of CD4 expression decreased to 0.2% after incubation with CADA (16 μM) for 4 days (FIG. 2).
Expression of various other surface antigens was also examined in MT-4 cells, SupT1 cells and PBMCs after incubation with CADA (16 μM) or CADA-free medium at 37° C. for 4 days. After washing with phosphate-buffered saline (PBS) containing 2% FCS(fetal calf serum), the cells were incubated with mAb (as indicated in Table 1) for 20 min at 4° C. Then the cells were washed, fixed with 1% formaldehyde and analyzed by flow cytometry. All mAbs were purchased from Becton-Dickinson (Erembodegem, Belgium).
CADA was compared with ATA and PMA with regard to their down-modulating effects. […] At day 4, the CD4 expression in SupT1 cells treated with CADA reduced to 1.2%.

[7] = SUP-T1, SupT1 cells, read-out: IC50 HHV-7 (50% reduction of HHV-7 antigen expression)
[8] = Human immunodeficiency virus 1, MT4, MT-4 cells, read-out: IC50 HIV-1 (NL4.3), p24 Ag ELISA

SMILES | IC50 [1] [µM] | CD4 down-modulating activity compared with CADA or parent analog (in words) [1] | IC50 [2] [µM] | CC50 ([3]; MT-4 cells) [µg/mL] | CC50 ([3]; SupT1 cells) [µg/mL] | IC50 [4, 7] [µg/mL] | IC50 [5, 8] [µg/mL] | CD4 down-modulating activity, fold less active than CADA [1] [fold] | down-regulation of CD4 expression (in words) [6] | IC50 ([4]; SUP-T1, read-out: IC50 HHV-7 (50% reduction of HHV-7 antigen expression)) [µg/mL] | IC50 ([5]; Human immunodeficiency virus 1, MT4, read-out: IC50 HIV-1 (NL4.3), p24 Ag ELISA) [µg/mL] | CD4 down-regulation (in words) [2]
C=C1CN(S(C)(=O)=O)CCCN(Cc2ccccc2)CCCN(S(C)(=O)=O)C1 [MFS105] | > 116 | significant loss | > 116 | > 50 | > 50 | > 50 | > 50 | – | – | – | – | –
C=C1CN(S(=O)(=O)c2ccc(COCCCC)cc2)CCCN(Cc2ccccc2)CCCN(S(=O)(=O)c2ccc(COCCCC)cc2)C1 [MFS117] | > 13.8 | significant loss | > 68.9 | 18.9 (≈ 26 µM) | > 50 | 0.92 (≈ 1.27 µM) | ≥ 10 | – | – | – | – | –
Cc1ccc(S(=O)(=O)N2CCCN(Cc3ccccc3)CCCN(S(=O)(=O)c3ccc(C)cc3)CCC2)cc1 [MFS-SC001] | 12.4 | – | 7.18 | 23.1 (≈ 40.5 µM) | 32.2 (≈ 56.5 µM) | 0.65 (≈ 1.14 µM) | > 10 | 20 | – | – | – | –
C=C1CN(S(=O)(=O)c2ccc(C)cc2)CCCN(CC2CC=CCC2)CCCN(S(=O)(=O)c2ccc(C)cc2)C1 (stereo not drawn) [QJ023] | 0.444 | slightly enhanced | 0.615 | 22.2 (≈ 37.9 µM) | 28.9 (≈ 49.3 µM) | 0.1 (≈ 0.171 µM) | 0.29 (≈ 0.495 µM) | – | down-regulate CD4 expression | – | – | –
C=C1CN(S(=O)(=O)c2ccc(C)cc2)CCCN(Cc2ccc[nH]2)CCCN(S(=O)(=O)c2ccc(C)cc2)C1 [QJ027] | 6.78 | – | 10.5 | 20.2 (≈ 35.4 µM) | 21.7 (≈ 38 µM) | – | – | 10 | down-regulate CD4 expression | 3.1 (≈ 5.43 µM) | 4.4 (≈ 7.71 µM) | –
C=C1CN(S(=O)(=O)c2ccc(C)cc2)CCCN(CCC)CCCN(S(=O)(=O)c2ccc(C)cc2)C1 [QJ029] | 4.83 | somewhat in between | 5.73 | 20.7 (≈ 38.8 µM) | 22.2 (≈ 41.6 µM) | 0.91 (≈ 1.7 µM) | 2 (≈ 3.75 µM) | – | down-regulate CD4 expression | – | – | –
C=C1CN(S(=O)(=O)c2ccc(C)cc2)CCCN(Cc2ccncc2)CCCN(S(=O)(=O)c2ccc(C)cc2)C1 [QJ030] | 4.41 | – | 12.4 | 21.3 (≈ 36.5 µM) | > 50 | 1.59 (≈ 2.73 µM) | 2.36 (≈ 4.05 µM) | 9 | down-regulate CD4 expression | – | – | –
C=C1CN(S(=O)(=O)c2ccc(C)cc2)CCCN(C(C)C)CCCN(S(=O)(=O)c2ccc(C)cc2)C1 [QJ035] | 11.4 | – | > 18.7 | 22.2 (≈ 41.6 µM) | 23 (≈ 43.1 µM) | 1.4 (≈ 2.62 µM) | 5.55 (≈ 10.4 µM) | 17 | down-regulate CD4 expression | – | – | not active
C=C1CN(S(=O)(=O)c2ccc(C)cc2)CCCN(C(C)CC)CCCN(S(=O)(=O)c2ccc(C)cc2)C1 (stereo not drawn) [QJ036] | 2.12 | somewhat in between | 3.27 | 20.9 (≈ 38.2 µM) | > 50 | 1.19 (≈ 2.17 µM) | 0.95 (≈ 1.73 µM) | – | down-regulate CD4 expression | – | – | –
C=C1CN(S(=O)(=O)c2ccc(C)cc2)CCCN(CC(C)CC)CCCN(S(=O)(=O)c2ccc(C)cc2)C1 (stereo not drawn) [QJ037] | 0.943 | – | 1.23 | 22.1 (≈ 39.3 µM) | 24 (≈ 42.7 µM) | 0.13 (≈ 0.231 µM) | 0.48 (≈ 0.854 µM) | – | down-regulate CD4 expression | – | – | –
C=C1CN(S(=O)(=O)c2ccc(C)cc2)CCCN(CCC(C)C)CCCN(S(=O)(=O)c2ccc(C)cc2)C1 [QJ038] | 0.73 | – | 0.854 | 19.4 (≈ 34.5 µM) | 8.4 (≈ 15 µM) | 0.34 (≈ 0.605 µM) | 0.31 (≈ 0.552 µM) | – | down-regulate CD4 expression | – | – | –

Source: patent publication US20040220164A1, “Triaza compound immunoregulatory agents” (priority 2001, published 2004)
